# Test results from patent publication EP4309652A1, “COMPOSITION FOR USE IN THE PREVENTION AND/OR TREATMENT OF DISEASES MEDIATED BY TLR4, IL1R, COX1/2 AND/OR RBP4” (Servizo Galego de Saúde (SERGAS), priority 2022, dated 2024).
# “Also recorded” adds a separate entry of the source.
# Key:
# IL1R [1] = experiment: RT-PCR, IL1β-induced mRNA expression of LCN2, IL6 and NOS2 in ATDC5 cells; format: cell-based, murine; details: IL1β (0,5 ng/ml), 24h
# Method: (§1) ATDC-5 cells were seeded in 12-well plates. Cells were seeded in a monolayer. After adhesion and incubation overnight in serum-free conditions (starvation), ATDC5 cells were stimulated for 24 h with LPS [100 ng/ml] or IL-1β [0,5 ng/ml] in the presence or absence of the compounds of the invention [10-100 µM].
# (§2) RNA was extracted using E.Z.N.A solation reagent (Omega) according to manufacturer's protocol. Relative quantitation was performed using the ΔΔC Comparative Method and the MxPro software (Stratagene, CA, USA) as the ratio of each gene to the expression of the housekeeping gene. Data are shown as mean ± S.E.M (error bars) of at least three independent experiments and represented as fold-change vs. controls.
# ATDC5 cells = experiment: Nitrite assay (Griess reaction), NO production; format: cell-based, murine; details: LPS (100 ng/ml) or IL1B (0,5 ng/ml), 24h
# Method: ATDC-5 cells were seeded in 12-well plates. Cells were seeded in a monolayer. After adhesion and incubation overnight in serum-free conditions (starvation), ATDC5 cells were stimulated for 24 h with LPS [100 ng/ml] or IL-1β [0,5 ng/ml] in the presence or absence of the compounds of the invention [10-100 µM]. As described above, 1×10^5 ATDC5 cells were seeded and treated for 24 h. Nitrite accumulation was determined in the culture medium using the Griess reaction. As previously described, after diazonium salt was dissolved, absorbance was measured at 550 nm in a microplate reader.
# TLR4 [2] = experiment: RT-PCR, LPS-induced mRNA expression of LCN2, IL6 and NOS2 in ATDC5 cells; format: cell-based, murine; details: LPS (100 ng/ml), 24h
# Method: as §1, §2
# TLR4 [3] = experiment: Western blot, NOS2 protein expression in LPS-stimulated ATDC5 cells; format: cell-based, murine; details: LPS (100 ng/ml), 24h
# Method: as §1
# (§3) Whole-cell protein extraction was performed using lysis buffer (RIPA Buffer). Immunoblots were incubated with the appropriated antibodies [INOS (rabbit polyclonal antibody) diluted 1:1000 (Thermo Fisher Scientific, MA, USA), IG (anti-rabbit antibody) diluted 1:5000 (Jackson ImmunoResearch Laboratories Inc., USA), b-actin (mouse polyclonal antibody) (Thermo Fisher Scientific, MA, USA) diluted 1:6500 and IG (anti-mouse antibody) diluted 1:10000] (Jackson ImmunoResearch Laboratories Inc., USA).
# (§4) Then, all immunoblots were visualized using an Immobilon Western kit (Millipore, MA, USA). Blots densitometries were generated using a ChemiDoc MP Imaging System and analysed using Image J software (National Institutes of Health, Bethesda, MD, USA).
# IL1R [4] = experiment: Western blot, NOS2 protein expression in IL1β-stimulated ATDC5 cells; format: cell-based, murine; details: IL1β (0,5 ng/ml), 24h
# Method: as §1, §3, §4
# [5] = system: primary human osteoarthritis chondrocytes and osteoblasts; experiment: RT-PCR, inflammatory and catabolic marker genes in TLR4- and IL1R-activated primary cells; format: cell-based; details: 50 µM, 24h, LPS (100 ng/ml) or IL1β (0,5 ng/ml)
# Method: as §2
# According to the results obtained in ATDC5 cells, we selected the concentration 50 µM and co-treated the primary cells with inflammatory stimuli for 24h at the same concentrations [LPS (100 ng/ml), and IL1β (0,5 ng/ml)].
# RBP4 = RBP4 mRNA expression in chondrocytes; format: cell-based; details: basal or inflammatory conditions (LPS or IL1β), 50 and 100 µM of PJ
# Method: as §2
structure (smiles),measurement,setting,value
CC(=O)OC(/C=C\C1OC(=O)C=CC1OC(C)=O)CC(OC(C)=O)C(C)OC(C)=O (stereo not drawn) [Pectinolide E],concentration of inhibitory activity on IL1β-induced mRNA expression,IL1R [1],50 µM
CC(=O)OC(/C=C\C1OC(=O)C=CC1O)CC(OC(C)=O)C(C)OC(C)=O (stereo not drawn) [Pectinolide J],NO production induced by LPS and IL1β,ATDC5 cells,maximum inhibitory activity
same,concentration of maximum inhibitory activity on induced NO production,ATDC5 cells,10 to 25 µM
same,"LPS-induced mRNA expression of LCN2, IL6 and NOS2",TLR4 [2],highest anti-inflammatory activity
same,"IL1β-induced expression of LCN2, IL6 and NOS2",IL1R [1],maximum inhibitory activity
same,concentration of inhibitory activity on IL1β-induced mRNA expression,IL1R [1],10 µM
same,"NOS2 protein expression (250 kDa dimer), LPS-induced",TLR4 [3],highest reduction of NOS2 expression
same,"NOS2 protein expression (250 kDa dimer), IL1β-induced",IL1R [4],highest reduction of NOS2 expression
same,"inflammatory and catabolic marker genes (LCN2, NOS2, IL6, MMP3) induced by the inflammatory stimuli",[5],maximum anti-inflammatory activity
same,RBP4 mRNA expression,RBP4,downregulates
CC(=O)OC(/C=C\C1CC=CC(=O)O1)CC(OC(C)=O)C(C)OC(C)=O (stereo not drawn) [Hyptolide],concentration of inhibitory activity on IL1β-induced mRNA expression,IL1R [1],100 µM
"COc1ccc2c(c1)c(CC(=O)O)c(C)n2C(=O)c1ccc(Cl)cc1 [Indomethacin, reference compound]",NO production induced by LPS and IL1β,ATDC5 cells,did not suppress; also recorded: did not significantly inhibit
